In US9856279B2 (AGIOS PHARMACEUTICALS, INC, priority 2011, dated 2018):

How the values were obtained:
HT1080 cells = experiment: Cellular assay for IDH1m inhibitors: inhibition of 2-HG production (LC-MS, 48 hours) in HT1080 cells; format: cell-based; conditions: Homo sapiens, HT-1080; inhibition of 2-HG production, HT1080 cells; read-out: HT1080 IC50
Experimental: Cells (e.g., HT1080 or U87MG) and are grown in T125 flasks in DMEM containing 10% FBS, 1× penicillin/streptomycin and 500 ug/mL G418. They are harvested by trypsin and seeded into 96 well white bottom plates at a density of 5000 cell/well in 100 ul/well in DMEM with 10% FBS. No cells are plates in columns 1 and 12. Cells are incubated overnight at 37° C. in 5% CO2. The next day compounds are made up at 2× concentration and 100 ul are added to each cell well. The final concentration of DMSO is 0.2% and the DMSO control wells are plated in row G. The plates are then placed in the incubator for 48 hours. At 48 hours, 100 μl of media is removed from each well and analyzed by LC-MS for 2-HG concentrations. The cell plate is placed back in the incubator for another 24 hours. At 72 hours post compound addition, 10 mL/plate of Promega Cell Titer Glo reagent is thawed and mixed. The cell plate is removed from the incubator and allowed to equilibrate to room temperature. Then 100 ul of reagent is added to each well of media. The cell plate is then placed on an orbital shaker for 10 minutes and then allowed to sit at room temperature for 20 minutes. The plate is then read for luminescence with an integration time of 500 ms.
The IC50 for inhibition of 2-HG production (concentration of test compound to reduce 2HG production by 50% compared to control) in these two cell lines for various compounds of formula I is set forth in Table 4 above.

IDH1 R132H = IDH1 R132H (Homo sapiens, UniProt O75874, R132H); experiment: Assay for IDH1 R132H inhibitors (NADPH/aKG, resazurin detection); format: biochemical; conditions: enzyme assay of Example 12; read-out: IDH1R132H IC50
IDH1 R132H, sequence (O75874 whole entry R132H): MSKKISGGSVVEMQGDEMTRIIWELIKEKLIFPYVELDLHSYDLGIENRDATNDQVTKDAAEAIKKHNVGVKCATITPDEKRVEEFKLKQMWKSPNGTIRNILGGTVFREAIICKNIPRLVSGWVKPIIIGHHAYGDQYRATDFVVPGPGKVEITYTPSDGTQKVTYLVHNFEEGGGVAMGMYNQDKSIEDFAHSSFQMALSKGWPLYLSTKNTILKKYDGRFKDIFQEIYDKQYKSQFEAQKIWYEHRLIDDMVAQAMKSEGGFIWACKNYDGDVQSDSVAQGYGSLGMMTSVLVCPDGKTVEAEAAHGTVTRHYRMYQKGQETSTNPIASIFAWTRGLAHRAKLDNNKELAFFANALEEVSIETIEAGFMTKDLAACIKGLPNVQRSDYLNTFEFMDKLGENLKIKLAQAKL
How it was run: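 Read-out is resorufin fluorescence (Ex544/Em590) 5 min after adding a 30 μM resazurin detection mix. Before that, mutant enzyme (0.2 μg/ml in its mix) ran 50 min at room temperature with compound, 8 uM NADPH and 2 mM aKG (mix levels) in Tris pH 7.5 with NaCl, MgCl2, BSA.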

Structure (SMILES)	IC50 (HT1080 cells)	IC50 (IDH1 R132H)
Cc1cc(-c2cc(C#N)c(N3CCN(C(=O)C4CC4)[C@H](C4CC4)C3)nc2C2CC2)c2ccncc2n1 [Compound 553, (R)-2-(4-(cyclopropanecarbonyl)-3-cyclopropylpiperazin-1-yl)-6-cyclopropyl-5-(2-methyl-1,7-naphthyridin-4-yl)nicotinonitrile]	< 500 nM	< 500 nM
N#Cc1cc(-c2cccc3cnc(Cl)cc23)c(C2CC2)nc1N1CCN(C(=O)C2CC2)[C@H](C2CC2)C1 [Compound 555, (R)-5-(3-chloroisoquinolin-5-yl)-2-(4-(cyclopropanecarbonyl)-3-cyclopropylpiperazin-1-yl)-6-cyclopropylnicotinonitrile]	500 to 1000 nM	< 500 nM
Cc1cc(-c2cc(C#N)c(N3CCN(C(=O)C4CC4)[C@H](C4CC4)C3)nc2C2CC2)c2cccnc2n1 [Compound 557, (R)-2-(4-(cyclopropanecarbonyl)-3-cyclopropylpiperazin-1-yl)-6-cyclopropyl-5-(2-methyl-1,8-naphthyridin-4-yl)nicotinonitrile]	500 to 1000 nM	< 500 nM
CCS(=O)(=O)N1CCN(c2cc(C#N)c(N3CCN(C(=O)CC(F)(F)F)[C@H](C4CC4)C3)nc2C2CC2)CC1 [Compound 559]	1000 to 10000 nM	< 500 nM
N#Cc1cc(Nc2ccnc3ccccc23)c(C2CC2)nc1N1CCN(C(=O)CC(F)(F)F)[C@H](C2CC2)C1 [Compound 560, (R)-6-cyclopropyl-2-(3-cyclopropyl-4-(3,3,3-trifluoropropanoyl)piperazin-1-yl)-5-(quinolin-4-ylamino)nicotinonitrile]	1000 to 10000 nM	< 500 nM
N#Cc1ccc2c(-c3cc(C#N)c(N4CCN(C(=O)C5CC5)[C@H](C5CC5)C4)nc3C3CC3)cccc2n1 [Compound 563, (R)-5-(5-cyano-6-(4-(cyclopropanecarbonyl)-3-cyclopropylpiperazin-1-yl)-2-cyclopropylpyridin-3-yl)quinoline-2-carbonitrile]	< 500 nM	< 500 nM
N#Cc1cc(-c2cccc3c(O)nccc23)c(C2CC2)nc1N1CCN(C(=O)C2CC2)[C@H](C2CC2)C1 [Compound 566, (R)-2-(4-(cyclopropanecarbonyl)-3-cyclopropylpiperazin-1-yl)-6-cyclopropyl-5-(1-hydroxyisoquinolin-5-yl)nicotinonitrile]	500 to 1000 nM	< 500 nM
C=Cc1ccc2c(-c3cc(C#N)c(N4CCN(C(=O)CCO)[C@H](C5CC5)C4)nc3C3CC3)cccc2n1 [Compound 569, (R)-6-cyclopropyl-2-(3-cyclopropyl-4-(3-hydroxypropanoyl)piperazin-1-yl)-5-(2-vinylquinolin-5-yl)nicotinonitrile]	< 500 nM	< 500 nM
C=Cc1ccc2c(-c3cc(C#N)c(N4CCN(C(=O)CCOC)[C@H](C5CC5)C4)nc3C3CC3)cccc2n1 [Compound 570, (R)-6-cyclopropyl-2-(3-cyclopropyl-4-(3-methoxypropanoyl)piperazin-1-yl)-5-(2-vinylquinolin-5-yl)nicotinonitrile]	< 500 nM	< 500 nM
C=Cc1cc(-c2cc(C#N)c(N3CCN(C(=O)CCO)[C@H](C4CC4)C3)nc2C2CC2)c2ccccc2n1 [Compound 571, (R)-6-cyclopropyl-2-(3-cyclopropyl-4-(3-hydroxypropanoyl)piperazin-1-yl)-5-(2-vinylquinolin-4-yl)nicotinonitrile]	< 500 nM	< 500 nM
C=Cc1cc(-c2cc(C#N)c(N3CCN(C(=O)CCO)C(C)C3)nc2C2CC2)ccn1 (stereo not shown) [Compound 572]	< 500 nM	< 500 nM
C=Cc1cc(-c2cc(C#N)c(N3CCN(C(=O)CCOC)[C@H](C4CC4)C3)nc2C2CC2)c2ccccc2n1 [Compound 574, (R)-6-cyclopropyl-2-(3-cyclopropyl-4-(3-methoxypropanoyl)piperazin-1-yl)-5-(2-vinylquinolin-4-yl)nicotinonitrile]	< 500 nM	< 500 nM
C=CC(=O)N1CCC=C(c2cc(C#N)c(N3CCN(C(=O)C4CC4)[C@H](C)C3)nc2C2CC2)C1 [Compound 575, (R)-5-(1-acryloyl-1,2,5,6-tetrahydropyridin-3-yl)-2-(4-(cyclopropanecarbonyl)-3-methylpiperazin-1-yl)-6-cyclopropylnicotinonitrile]	< 500 nM	< 500 nM
C=CC(=O)N1CCCC(c2cc(C#N)c(N3CCN(C(=O)C4CC4)[C@H](C)C3)nc2C2CC2)C1 (stereo partly drawn) [Compound 576, 5-(1-acryloylpiperidin-3-yl)-2-((R)-4-(cyclopropanecarbonyl)-3-methylpiperazin-1-yl)-6-cyclopropylnicotinonitrile]	< 500 nM	500 to 1000 nM
C=Cc1ccc(Nc2cc(C#N)c(N3CCN(C(=O)CCO)[C@H](C)C3)nc2C2CC2)cn1 [Compound 577, (R)-6-cyclopropyl-2-(4-(3-hydroxypropanoyl)-3-methylpiperazin-1-yl)-5-((6-vinylpyridin-3-yl)amino)nicotinonitrile]	< 500 nM	< 500 nM
C=Cc1cc(-c2cc(C#N)c(N3CCN(C(=O)C4CC4)[C@@H](C4CC4)C3)nc2C2CC2)ncn1 [Compound 578, (S)-2-(4-(cyclopropanecarbonyl)-3-cyclopropylpiperazin-1-yl)-6-cyclopropyl-5-(6-vinylpyrimidin-4-yl)nicotinonitrile]	< 500 nM	< 500 nM
C[C@@H]1CN(c2nc(C3CC3)c(Nc3ccc(C#N)nc3)cc2C#N)CCN1C(=O)CCO [Compound 582, (R)-5-((5-cyano-2-cyclopropyl-6-(4-(3-hydroxypropanoyl)-3-methylpiperazin-1-yl)pyridin-3-yl)amino)picolinonitrile]	1000 to 10000 nM	< 500 nM
Cc1cc2c(-c3cc(C#N)c(N4CCN(C(=O)CCO)[C@H](C)C4)nc3C3CC3)cccc2cn1 [Compound 588, (R)-6-cyclopropyl-2-(4-(3-hydroxypropanoyl)-3-methylpiperazin-1-yl)-5-(3-methylisoquinolin-5-yl)nicotinonitrile]	< 500 nM	< 500 nM
C#CC(=O)N1CCC=C(c2cc(C#N)c(N3CCN(C(=O)C4CC4)[C@H](C)C3)nc2C2CC2)C1 [Compound 594, (R)-2-(4-(cyclopropanecarbonyl)-3-methylpiperazin-1-yl)-6-cyclopropyl-5-(1-propioloyl-1,2,5,6-tetrahydropyridin-3-yl)nicotinonitrile]	< 500 nM	< 500 nM
C=Cc1ccnc(-c2cc(C#N)c(N3CCN(C(=O)CCOC)[C@H](C)C3)nc2C2CC2)c1 [Compound 596, (R)-2′-cyclopropyl-6′-(4-(3-methoxypropanoyl)-3-methylpiperazin-1-yl)-4-vinyl-2,3′-bipyridine-5′-carbonitrile]	< 500 nM	< 500 nM
C=C(C)c1cc(-c2cc(C#N)c(N3CCN(C(=O)CCOC)[C@H](C)C3)nc2C2CC2)ncn1 [Compound 598, (R)-6-cyclopropyl-2-(4-(3-methoxypropanoyl)-3-methylpiperazin-1-yl)-5-(6-(prop-1-en-2-yl)pyrimidin-4-yl)nicotinonitrile]	500 to 1000 nM	< 500 nM
C=CC(=O)N1CCOC(c2cc(C#N)c(N3CCN(C(=O)C4CC4)[C@H](C)C3)nc2C2CC2)C1 (stereo partly drawn) [Compound 600, 5-(4-acryloylmorpholin-2-yl)-2-((R)-4-(cyclopropanecarbonyl)-3-methylpiperazin-1-yl)-6-cyclopropylnicotinonitrile]	500 to 1000 nM	500 to 1000 nM
C=C(F)c1cc(-c2cc(C#N)c(N3CCN(C(=O)CCOC)[C@H](C)C3)nc2C2CC2)ncn1 [Compound 602, (R)-6-cyclopropyl-5-(6-(1-fluorovinyl)pyrimidin-4-yl)-2-(4-(3-methoxypropanoyl)-3-methylpiperazin-1-yl)nicotinonitrile]	< 500 nM	< 500 nM
C=Cc1cnc2c(/C=C/c3cnc4c(-c5cc(C#N)c(N6CCN(C(=O)CCOC)[C@H](C)C6)nc5C5CC5)cccc4n3)cccc2n1 [Compound 604, (R,E)-6-cyclopropyl-2-(4-(3-methoxypropanoyl)-3-methylpiperazin-1-yl)-5-(2-(2-(2-vinylquinoxalin-5-yl)vinyl)quinoxalin-5-yl)nicotinonitrile]	< 500 nM	< 500 nM
C=Cc1cc(-c2cc(C#N)c(N3CCN(C(=O)CCC(OC)OC)[C@H](C)C3)nc2C2CC2)ccn1 [Compound 606, (R)-2-cyclopropyl-6-(4-(4,4-dimethoxybutanoyl)-3-methylpiperazin-1-yl)-2′-vinyl-[3,4′-bipyridine]-5-carbonitrile]	< 500 nM	< 500 nM
C=Cc1cc(-c2cc(C#N)c(N3CCN(C(=O)CCC=O)[C@H](C)C3)nc2C2CC2)ccn1 [Compound 607, (R)-2-cyclopropyl-6-(3-methyl-4-(4-oxobutanoyl)piperazin-1-yl)-2′-vinyl-[3,4′-bipyridine]-5-carbonitrile]	< 500 nM	< 500 nM
